According to patent US20110092544A1, “FUNGICIDAL PYRIDINES” (E.I. DU PONT DE nemours and company, priority 2008, published 2011):

Columns and labels:
Assay type in all cases: in vivo
Plasmopara viticola = assay: Test H: grape downy mildew, spray after inoculation of grape seedlings, visual disease rating; settings: for pest or weed control at 200 ppm: Plasmopara viticola, 192 h
[1] = system: Puccinia recondite f. sp. tritici; assay: Test B: wheat leaf rust, preventive spray on wheat seedlings, visual disease rating; settings: for pest or weed control at 200 ppm: 192 h
In short: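 Wheat seedlings were sprayed to run-off with compound suspension, 200 ppm (≈500 g/ha) or 40 ppm where marked, containing surfactant in acetone/water. Inoculation with Puccinia recondita spores followed one day later, then 24 h in saturated humidity at 20° C and 7 days at 20° C. Disease control was rated visually, 0–100% versus controls.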

Septoria tritici = assay: Test C: wheat leaf blotch, preventive spray on wheat seedlings, visual disease rating; settings: for pest or weed control at 200 ppm: Zymoseptoria tritici, 504 h
In short: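 Wheat seedlings sprayed to run-off with compound in acetone/water plus 250 ppm surfactant at 200 ppm (≈500 g/ha), or 40 ppm where marked; inoculated with Septoria tritici next day. Held saturated at 20 °C for 48 h, then 19 days at 20 °C; disease control rated visually 0–100 versus controls.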

Rhizoctonia oryzae = assay: Test G: turf brown patch, preventive spray on creeping bent grass seedlings, visual disease rating; settings: for pest or weed control at 200 ppm: Waitea circinata, in Agrostis stolonifera, 120 h
Source text: General protocol for preparing test suspensions for Tests A-H: The test compounds were first dissolved in acetone in an amount equal to 3% of the final volume and then suspended at the desired concentration (in ppm) in acetone and purified water (50/50 mix) containing 250 ppm of the surfactant Trem® 014 (polyhydric alcohol esters). The resulting test suspensions were then used in tests A-H. Spraying a 200 ppm test suspension to the point of run-off on the test plants was the equivalent of a rate of 500 g/ha.
The test suspension was sprayed to the point of run-off on creeping bent grass seedlings. The following day the seedlings were inoculated with a spore suspension of Rhizoctonia oryzae (the causal agent of turf brown patch) and incubated in a saturated atmosphere at 27° C. for 48 h, and then moved to a growth chamber at 27° C. for 3 days, after which time disease ratings were visually made.
Results for Tests A-H are given in Table A. In the table, a rating of 100 indicates 100% disease control and a rating of 0 indicates no disease control (relative to the controls). A dash (-) indicates no test results. All results are for compounds tested at 200 ppm except where the compound number is followed by “*” which indicates the compound was tested at 40 ppm.

[2] = system: Erysiphe graminis f. sp. tritici; assay: Test A: wheat powdery mildew, preventive spray on wheat seedlings, visual disease rating; settings: for pest or weed control at 200 ppm: Blumeria graminis, 192 h
In short: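 Acetone/water (50/50) suspension with 250 ppm surfactant sprayed to run-off on wheat seedlings (200 ppm ≈ 500 g/ha); inoculated next day with E. graminis spore dust. Incubated 8 days at 20° C, then visually rated 0–100% disease control versus untreated controls; tests at 200 ppm or 40 ppm.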

Alternaria solani = assay: Test E: tomato early blight, preventive spray on tomato seedlings, visual disease rating; settings: for pest or weed control at 200 ppm: Alternaria solani, 168 h
In short: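 Seedlings sprayed to run-off with compound in acetone/water plus 250 ppm Trem 014 (200 ppm ≈ 500 g/ha), inoculated with spores next day. Held 48 h saturated at 27 °C, then 5 days at 20 °C; visual rating 0–100% disease control relative to controls.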

Septoria nodorum = assay: Test D: wheat glume blotch, preventive spray on wheat seedlings, visual disease rating; settings: for pest or weed control at 200 ppm: Parastagonospora nodorum, 216 h
In short: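 Compounds in 3% acetone, then 50/50 acetone–water with 250 ppm Trem 014, sprayed to run-off at 200 ppm (500 g/ha; some at 40 ppm) one day before spore inoculation. Held 48 h saturated at 20 °C, then 7 days at 20 °C; visual rating as % disease control vs untreated (0–100).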

Botrytis cinerea = assay: Test F: tomato botrytis, preventive spray on tomato seedlings, visual disease rating; settings: for pest or weed control at 200 ppm: Botrytis cinerea, 120 h
In short: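 Tomato seedlings sprayed to run-off with compound suspended in acetone/water (50/50) plus 250 ppm Trem 014, at 200 ppm (≈500 g/ha) or 40 ppm where marked. Inoculated next day with B. cinerea spores, 48 h saturated atmosphere at 20 °C, then 3 days at 24 °C. Visual rating, 0–100% disease control relative to controls.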

[3] = 200 ppm, 100 = 100% disease control, 0 = no control
[4] = 40 ppm (compound number followed by *)

Structure (SMILES)	Test H rating (% disease control) (Plasmopara viticola; [3]) [%]	Test B rating (% disease control) [1, 3] [%]	Test C rating (% disease control) (Septoria tritici; [3]) [%]	Test G rating (% disease control) (Rhizoctonia oryzae; [3]) [%]	Test A rating (% disease control) [2, 3] [%]	Test E rating (% disease control) (Alternaria solani; [3]) [%]	Test D rating (% disease control) (Septoria nodorum; [3]) [%]	Test F rating (% disease control) (Botrytis cinerea; [3]) [%]	other results
CCOC(=O)c1cnc(C)c(-c2ccccc2)c1-c1cc(OC)ccc1Cl [Compound 7]	0	74	52	97	97	0	0	98	–
CCOC(=O)c1cnc(C)c(-c2ccccc2)c1-c1cc(F)cc(F)c1 [Compound 8]	17	0	0	0	98	0	0	0	–
CNC(=O)c1cnc(C)c(-c2ccccc2)c1-c1cc(OC)cc(OC)c1 [Compound 9]	0	0	86	0	94	99	0	37	–
COc1cc(OC)cc(-c2c(C(=O)N(C)C)cnc(C)c2-c2ccccc2)c1 [Compound 10]	0	0	33	0	96	8	0	80	–
C=C(C)c1cnc(C)c(-c2ccc(F)cc2)c1-c1cc(OC)cc(OC)c1 [Compound 16, 4-(3,5-dimethoxyphenyl)-3-(4-fluorophenyl)-2-methyl-5-(1-methylethenyl)pyridine]	–	–	–	–	–	–	–	–	pest or weed control at 200 ppm (Plasmopara viticola; [3]): 0%; pest or weed control at 200 ppm [1, 3]: 100%; pest or weed control at 200 ppm (Septoria tritici; [3]): 100%; pest or weed control at 200 ppm (Rhizoctonia oryzae; [3]): 99%; pest or weed control at 200 ppm [2, 3]: 99%; pest or weed control at 200 ppm (Alternaria solani; [3]): 99%; pest or weed control at 200 ppm (Septoria nodorum; [3]): 73%; pest or weed control at 200 ppm (Botrytis cinerea; [3]): 99%
COc1cc(OC)cc(-c2c(C(C)=O)cnc(C)c2-c2ccccc2F)c1 [Compound 17]	0	98	100	60	96	46	0	99	–
COc1cc(OC)cc(-c2c(C(C)C)cnc(C)c2-c2ccc(F)cc2)c1 [Compound 19, 4-(3,5-dimethoxyphenyl)-3-(4-fluorophenyl)-2-methyl-5-(1-methylethyl)pyridine]	–	–	–	–	–	–	–	–	pest or weed control at 200 ppm (Plasmopara viticola; [3]): 0%; pest or weed control at 200 ppm [1, 3]: 99%; pest or weed control at 200 ppm (Septoria tritici; [3]): 100%; pest or weed control at 200 ppm (Rhizoctonia oryzae; [3]): 99%; pest or weed control at 200 ppm [2, 3]: 99%; pest or weed control at 200 ppm (Alternaria solani; [3]): 99%; pest or weed control at 200 ppm (Septoria nodorum; [3]): 0%; pest or weed control at 200 ppm (Botrytis cinerea; [3]): 99%
CCOC(=O)c1cnc(C)c(-c2ccccc2F)c1-c1cc(OC)cc(OC)c1 [Compound 20]	53	90	100	0	98	0	0	99	–
COc1cc(OC)cc(-c2c(-c3ccccc3)c(C)nc(C)c2-c2ccc(F)cc2)c1 [Compound 22]	0	55	95	0	78	0	0	99	–
COc1cc(OC)cc(-c2c(-c3ccccc3)c(C)nc(C)c2-c2ccccc2F)c1 [Compound 23]	0	80	83	0	62	0	0	99	–
COc1cc(OC)cc(-c2c(-c3ccccc3)c(C)[n+]([O-])c(C)c2-c2ccccc2F)c1 [Compound 24]	–	–	–	–	–	–	–	–	Test H rating (% disease control) (Plasmopara viticola; [4]): 0%; Test B rating (% disease control) [1, 4]: 95%; Test C rating (% disease control) (Septoria tritici; [4]): 97%; Test G rating (% disease control) (Rhizoctonia oryzae; [4]): 0%; Test A rating (% disease control) [2, 4]: 91%; Test E rating (% disease control) (Alternaria solani; [4]): 76%; Test D rating (% disease control) (Septoria nodorum; [4]): 0%; Test F rating (% disease control) (Botrytis cinerea; [4]): 99%
CCOC(=O)c1cnc(CC)c(-c2ccccc2)c1-c1cc(OC)cc(OC)c1 [Compound 31]	0	0	80	0	0	0	0	41	–
COc1cc(OC)cc(-c2c(-c3ccccc3F)cnc(C)c2-c2ccccc2)c1 [Compound 32]	0	96	99	99	98	59	0	99	–
